Test results taken from patent US20240368153A1, “Aminopyridine-based MTA-Cooperative PRMT5 Inhibitors” (Mirati Therapeutics, Inc., priority 2021, published 2024).
Read-outs that look alike come from different tables or passages of the source.

How the values were obtained:
[1] = target: recombinant human dual expressed Avi PRMT5/His-MEP50 protein (Homo sapiens (Human), UniProt O14744); test: HTRF binding assay in presence of MTA; conditions: 30 μM MTA
Protocol: The PRMT5 binding activity of compounds of the present invention was determined using an HTRF binding assay or SPR assay.
A recombinant human dual expressed Avi PRMT5/His-MEP50) protein (corresponding to amino acids for PRMT5 2-637, and 2-342 for MEP50 expressed in baculovirus) was incubated with target fragments in final buffer (25 mM ADA pH 7.2, 30 μM MTA, 1 mM TCEP, 50 mM NaCl, 0.002% Tween, 5 nM proprietary Tracer binding compound prepared in-house), overnight at 2-8° C. After overnight incubation the binding is monitored after the addition of 0.5 nM Anti-His-Tb (Cisbio) after 1 hr incubation at RT (˜20-24 hrs total binding time). The HTRF signal was measured using a Clariostar reader (BMG) excitation filter (Ex Tr), dichroic filter (LP TP) and emission filters (F 665-10 and F 620-10) manufacturer's instructions. The HTRF ratio was calculated using the formula: [emission 665/emission 620]*10000.

PRMT5/MEP50 complex = PRMT5/MEP50 complex (Homo sapiens (Human), UniProt O14744); test: PRMT5:MEP50 FlashPlate Assay; assay type: biochemical
Protocol: The PRMT5 inhibitory activity of compounds of the present invention was determined using a PRMT5:MEP50 FlashPlate Assay (Reaction Biology Corporation).
The assay uses purified human, PRMT5 enzyme to convert S-adenosyl-L-[methyl-^3H]methionine plus histone H4 L-arginine to S-adenosyl-L-homocysteine plus histone H4 [methyl-^3H]-L-arginine. The assay was carried out using Streptavidin-coated FlashPlates (Perkin Elmer), which contained a scintillant embedded in the plastic of the plate. The histone H4 peptide substrate was conjugated with biotin, which binds to the streptavidin-coated well of the plate, placing the H4 peptide in close proximity to the side well and the scintillant. The transfer of the tritiated methyl group from S-adenosyl-L-[methyl-^3H]methionine to the bound histone H4 peptide generated a radiolabeled histone H4, which was quantitated by measuring in a scintillation counter to determine the activity of PRMT5 enzyme in the presence and absence of compound. […] Briefly, compounds of the present invention were solubilized in 100% DMSO at a highest concentration of 10 mM. For IC, determinations, the initial starting concentration for the serial dilutions of each compound was 50 μM. Control samples lacking compound, PRMT5/MEP50 complex or various reaction components also were prepared and processed in parallel with compound test samples. SAH was used as a positive control for assay validation. To measure PRMT5 inhibitory activity, 3 nM PRMT5/MEP50 complex (Reaction Biology Corporation) was preincubated with test compound in assay buffer containing 40 nM histone H4 peptide (amino acids 1-15)-Biotin conjugate for 20 min at room temperature. The enzymatic reaction was initiated by adding 1 μM tritiated S-adenosyl methionine (final concentration) and the reaction is allowed to proceed for 20 min. The reaction was stopped and the amount of bound, tritiated H4 peptide in each sample was determined using a scintillation counter. The IC50 value for each compound was calculated from each 10-point dose-response curve for samples plus and minus MTA using GraphPad Prism software and the results for exemplary compounds of Formula (I) is shown in Table 9a.

[2] = target: PRMT5•MTA (biotinylated PRMT5-MEP50) (Homo sapiens (Human), UniProt O14744); test: SPR binding assay, MTA running buffer; conditions: 20 μM MTA running buffer
Protocol: (§1) SPR screening was performed in MTA running buffer (25 mM Bicine pH 7.6, 100 mM NaCl, 1 mM TCEP, 20 μM MTA, 0.05% Tween-20 and 2% DMSO). The biotinylated PRMT5-MEP50 surface was equilibrated with MTA running buffer for 12 hours prior to the start. […] Subsequently, compound titration was repeated in SAM-running buffer (25 mM Bicine pH 7.6, 100 mM NaCl, 1 mM TCEP, 20 μM SAM, 0.05% Tween-20, and 2% DMSO). […] After double referencing, the steady-state response was extracted for each fragment concentration and was fit to the Langmuir isotherm equation to determine the equilibrium dissociation constant (KD).

[3] = target: PRMT5•SAM (biotinylated PRMT5-MEP50) (Homo sapiens (Human), UniProt O14744); test: SPR binding assay, SAM running buffer; conditions: 20 μM SAM running buffer
Protocol: as §1

[4] = IC50 + 2 μM MTA, histone H4 peptide, presence of 2 μM MTA
[5] = histone H4 peptide, absence of MTA, read-out: IC50
[6] = read-out: IC50 + 2 μM MTA, histone H4 peptide, presence of 2 μM MTA

Chain of recombinant human dual expressed Avi PRMT5/His-MEP50 protein (O14744 2-637): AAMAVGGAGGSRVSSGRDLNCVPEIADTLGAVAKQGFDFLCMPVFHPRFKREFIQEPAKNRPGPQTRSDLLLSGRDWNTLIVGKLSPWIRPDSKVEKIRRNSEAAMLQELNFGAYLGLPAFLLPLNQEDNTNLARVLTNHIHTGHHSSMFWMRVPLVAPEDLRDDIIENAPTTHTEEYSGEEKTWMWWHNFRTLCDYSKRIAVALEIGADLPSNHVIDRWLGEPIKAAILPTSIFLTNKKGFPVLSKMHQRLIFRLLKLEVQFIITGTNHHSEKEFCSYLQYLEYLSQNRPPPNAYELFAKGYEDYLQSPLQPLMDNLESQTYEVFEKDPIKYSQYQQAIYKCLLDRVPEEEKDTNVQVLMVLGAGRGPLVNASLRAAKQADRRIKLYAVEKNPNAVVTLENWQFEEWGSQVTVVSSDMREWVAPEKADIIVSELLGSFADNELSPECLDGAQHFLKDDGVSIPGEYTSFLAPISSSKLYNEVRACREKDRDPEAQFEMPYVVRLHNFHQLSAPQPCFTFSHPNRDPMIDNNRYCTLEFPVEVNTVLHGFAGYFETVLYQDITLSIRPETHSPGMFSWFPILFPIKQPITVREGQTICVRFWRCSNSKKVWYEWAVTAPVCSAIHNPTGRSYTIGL
Chain of recombinant human dual expressed Avi PRMT5/His-MEP50 protein (Q9BQA1 2-342 partner): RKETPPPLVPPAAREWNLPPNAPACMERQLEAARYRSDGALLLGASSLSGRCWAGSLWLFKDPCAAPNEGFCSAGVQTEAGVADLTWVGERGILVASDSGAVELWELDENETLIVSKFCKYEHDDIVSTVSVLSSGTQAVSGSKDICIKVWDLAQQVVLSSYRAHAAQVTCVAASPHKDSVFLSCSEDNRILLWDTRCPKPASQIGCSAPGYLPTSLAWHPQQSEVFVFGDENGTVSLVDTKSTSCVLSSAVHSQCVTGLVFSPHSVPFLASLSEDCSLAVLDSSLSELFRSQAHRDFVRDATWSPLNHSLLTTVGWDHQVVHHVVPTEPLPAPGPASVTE
Chain of PRMT5•SAM (biotinylated PRMT5-MEP50) (O14744 whole entry): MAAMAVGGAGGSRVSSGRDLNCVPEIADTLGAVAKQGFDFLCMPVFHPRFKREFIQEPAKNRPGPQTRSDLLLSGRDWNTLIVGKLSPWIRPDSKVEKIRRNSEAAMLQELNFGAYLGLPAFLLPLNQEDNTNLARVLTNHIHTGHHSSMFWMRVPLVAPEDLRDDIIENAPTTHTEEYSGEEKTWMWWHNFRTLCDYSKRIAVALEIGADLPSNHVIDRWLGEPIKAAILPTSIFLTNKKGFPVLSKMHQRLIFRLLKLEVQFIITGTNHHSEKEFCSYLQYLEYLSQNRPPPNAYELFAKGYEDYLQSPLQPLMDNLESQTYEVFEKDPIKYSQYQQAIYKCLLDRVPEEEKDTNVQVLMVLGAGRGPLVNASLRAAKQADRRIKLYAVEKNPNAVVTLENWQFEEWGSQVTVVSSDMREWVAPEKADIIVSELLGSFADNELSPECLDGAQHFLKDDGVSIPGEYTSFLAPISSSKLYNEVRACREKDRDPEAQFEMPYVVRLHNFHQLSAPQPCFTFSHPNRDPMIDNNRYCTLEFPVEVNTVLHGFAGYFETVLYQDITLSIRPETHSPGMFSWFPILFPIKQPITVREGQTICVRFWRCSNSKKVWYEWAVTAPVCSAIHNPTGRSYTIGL
Chain of PRMT5•SAM (biotinylated PRMT5-MEP50) (Q9BQA1 whole entry partner): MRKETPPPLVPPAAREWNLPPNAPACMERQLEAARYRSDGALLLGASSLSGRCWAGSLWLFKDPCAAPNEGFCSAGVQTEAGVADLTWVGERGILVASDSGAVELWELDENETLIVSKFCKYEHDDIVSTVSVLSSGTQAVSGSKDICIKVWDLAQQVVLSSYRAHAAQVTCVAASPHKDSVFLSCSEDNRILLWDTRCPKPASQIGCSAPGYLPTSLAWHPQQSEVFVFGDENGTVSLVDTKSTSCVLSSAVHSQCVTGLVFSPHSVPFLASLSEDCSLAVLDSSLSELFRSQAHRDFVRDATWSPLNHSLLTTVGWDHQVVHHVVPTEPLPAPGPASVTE
Chain of PRMT5/MEP50 complex (O14744 whole entry): as the sequence (O14744 whole entry) above
Chain of PRMT5/MEP50 complex (Q9BQA1 whole entry partner): as the sequence (Q9BQA1 whole entry partner) above
Chain of PRMT5•MTA (biotinylated PRMT5-MEP50) (O14744 whole entry, the tested form may be a part): as the sequence (O14744 whole entry) above
Chain of PRMT5•MTA (biotinylated PRMT5-MEP50) (Q9BQA1 whole entry partner, the tested form may be a part): as the sequence (Q9BQA1 whole entry partner) above

SMILES | IC50 [1] [µM] | IC50 (PRMT5/MEP50 complex; [4]) [µM] | IC50 (PRMT5/MEP50 complex; [5]) [µM] | Kd [2] [µM] | Kd [3] [µM] | IC50 (PRMT5/MEP50 complex; [6]) [µM]
Cc1cc2[nH]c(-n3cnc(Br)n3)cc2nc1N [Example 13-2, 2-(3-bromo-1,2,4-triazol-1-yl)-6-methyl-1H-pyrrolo[3,2-b]pyridin-5-amine] | 4.27 | 72.8 | 83.8 |  |  | 
Cc1cc(N)nc2cc(Cc3ccccc3C#N)cnc12 [Example 2-4, 2-((6-amino-8-methyl-1,5-naphthyridin-3-yl)methyl)benzonitrile] | 0.992 |  | > 300 | 0.874 | 3.09 | > 300
Cc1cc(N)nc2cc(CNC(=O)c3ccccc3)cnc12 [Example 7-1, N-[(6-amino-8-methyl-1,5-naphthyridin-3-yl)methyl]benzamide] | 0.158 |  | 62.6 | 0.094 | 0.396 | 5.57
Cc1cc2[nH]c(N3CCNC3=O)cc2nc1N [Example 13-6, 1-(5-amino-6-methyl-1H-pyrrolo[3,2-b]pyridin-2-yl)imidazolidin-2-one] | 6.69 | 183 | 60.3 |  |  | 
Cn1ncc(N2CCc3cc(F)c(N)nc3C2)c1-c1ccccc1C#N [Example 11-4, 2-(4-(2-amino-3-fluoro-5,6-dihydro-1,7-naphthyridin-7(8H)-yl)-1-methyl-1H-pyrazol-5-yl)benzonitrile] | 1.43 |  | > 300 |  |  | 79.8
Cc1cc(N)nc2cc(CN3C(=O)c4ccccc4C3=O)cnc12 [Example 7-6, 2-[(6-amino-8-methyl-1,5-naphthyridin-3-yl)methyl]isoindoline-1,3-dione] | 0.021 |  | > 300 | 0.012 | 0.105 | 0.745
Cc1cc2[nH]c(NC(=O)c3ccccc3)cc2nc1N [Example 12-2, N-(5-amino-6-methyl-1H-pyrrolo[3,2-b]pyridin-2-yl)benzamide] | 5.46 |  | 60.2 |  |  | 44.7
Cc1cc(N)nc2cc(Oc3cccnc3)cnc12 [Example 3-7, 4-methyl-7-(3-pyridyloxy)-1,5-paphthyridin-2-amine] | 0.546 |  | 351 | 2.46 |  | 26.1
Nc1ccc2[nH]c(NC(=O)c3ccccc3)cc2n1 [Example 12-3, N-(5-amino-1H-pyrrolo[3,2-b]pyridin-2-yl)benzamide] | 18.3 |  | 95.9 |  |  | 97.7
CC(=O)N1CCC(=O)n2c(cc3nc(N)c(C)cc32)C1 [Example 15-2, 11-acetyl-5-amino-4-methyl-1,6,11-triazatricyclo[7.5.0.0^2,7]tetradeca-2,4,6,8-tetraen-14-one] | 2.47 |  | > 300 |  |  | 57.9
Cc1cc(N)nc2cc(C(C#N)N3C(=O)c4ccccc4C3=O)cnc12 (stereo not drawn) [Example 7-7, 2-(6-amino-8-methyl-1,5-naphthyridin-3-yl)-2-(1,3-dioxoisoindolin-2-yl)acetonitrile] | 0.024 |  | > 300 |  |  | 2.39
Cc1cc(N)nc2cc(Cc3ccccc3F)cnc12 [Example 2-2, 7-(2-fluorobenzyl)-4-methyl-1,5-naphthyridin-2-amine] | 0.354 |  |  | 5.28 | 39.1 | 
CC(=O)c1c(CNC(=O)c2ccccc2)[nH]c2cc(C)c(N)nc12 [Example 15-5, N-((3-acetyl-5-amino-6-methyl-1H-pyrrolo[3,2-b]pyridin-2-yl)methyl)benzamide] | ≥ 100 |  |  | 774 | 631 | 
CC(=O)N(C)Cc1cc2nc(N)c(C)cc2n1C(C)=O [Example 15-8, N-((1-acetyl-5-amino-6-methyl-1H-pyrrolo[3,2-b]pyridin-2-yl)methyl)-N-methylacetamide] | 1.01 |  |  | 0.043 | 0.341 | 
Cc1cc2[nH]c(N3CCN(C)C3=O)cc2nc1N [Example 13-5, 1-(5-amino-6-methyl-1H-pyrrolo[3,2-b]pyridin-2-yl)-3-methyl-imidazolidin-2-one] | 31.8 | 70 | > 300 |  |  | 
Cc1cc2[nH]c(N3CC(=O)NC3=O)cc2nc1N [Example 13-7, 1-(5-amino-6-methyl-1H-pyrrolo[3,2-b]pyridin-2-yl)imidazolidine-2,4-dione] | 2.29 | > 300 | > 300 |  |  | 

SMILES | IC50 [1] [µM] | IC50 (PRMT5/MEP50 complex; [4]) [µM] | IC50 (PRMT5/MEP50 complex; [5]) [µM] | Kd [2] [µM] | Kd [3] [µM] | IC50 (PRMT5/MEP50 complex; [6]) [µM]
Cc1cc(N)nc2cc(Cc3cccnc3)cnc12 [Example 2-7, 4-methyl-7-(3-pyridylmethyl)-1,5-naphthyridin-2-amine] | 0.581 |  |  | 0.232 | 1.22 | 
Cc1cc2c(cc(CNC(=O)c3ccccc3)n2C2CC2)nc1N [Example 15-1, N-[(5-amino-1-cyclopropyl-6-methyl-pyrrolo[3,2-b]pyridin-2-yl)methyl]benzamide] | 0.362 |  | > 300 | 0.066 |  | 44.9
Cc1cc(N)nc2cc(Oc3ccccc3C#N)cnc12 [Example 3-4, 2-((6-amino-8-methyl-1,5-naphthyridin-3-yl)oxy)benzonitrile] | 33.9 |  |  |  |  | 
Cc1cc(N)nc2cc(Oc3ccccc3Cl)cnc12 [Example 3-3, 7-(2-chlorophenoxy)-4-methyl-1,5-naphthyridin-2-amine] | 4.8 |  |  |  |  | 
Cc1cc(N)nc2ccc(-c3cnn(C)c3)nc12 [Example 4-5, 4-methyl-6-(1-methylpyrazol-4-yl)-1,5-naphthyridin-2-amine] | 64.1 |  |  |  |  | 
Nc1ccc2c(n1)CN(c1cccnc1)CC2 [Example 11-1, 7-(3-pyridyl)-6,8-dihydro-5H-1,7-naphthyridin-2-amine] | 3.68 |  |  |  |  | 
Cn1cc(N2CCc3cc(F)c(N)nc3C2)cn1 [Example 11-3, 3-fluoro-7-(1-methyl-1H-pyrazol-4-yl)-5,6,7,8-tetrahydro-1,7-naphthyridin-2-amine] | ≥ 100 |  |  |  |  | 
Nc1ccc2c(n1)CN(c1cncc(Oc3ccccc3)c1)CC2 [Example 11-2, 7-(5-phenoxy-3-pyridyl)-6,8-dihydro-5H-1,7-naphthyridin-2-amine] | 0.073 |  |  |  |  | 5.8
Cc1cc(N)nc2ccc(-c3cncs3)nc12 [Example 4-4, 4-methyl-6-thiazol-5-yl-1,5-naphthyridin-2-amine] | 29.6 |  |  |  |  | 
Cc1cc(N)nc2cc(Oc3ccccn3)cnc12 [Example 3-6, 4-methyl-7-(pyridin-2-yloxy)-1,5-naphthyridin-2-amine] | 40.6 |  |  |  |  | 
Cc1cc(N)nc2cc(-c3ccccc3)cnc12 [Example 1-1, 4-methyl-7-phenyl-1,5-naphthyridin-2-amine] | 17.2 |  |  |  |  | 
CNc1ccc2nc(N)cc(C)c2n1 [Example 5-1, N^2,8-dimethyl-1,5-naphthyridine-2,6-diamine] | ≥ 100 |  |  |  |  | 
Nc1ccc2cc(Cl)ncc2n1 [Example 6-1, 6-chloro-1,7-naphthyridin-2-amine] | ≥ 100 |  |  |  |  | 
Cc1cc2[nH]c(CNC(=O)c3ccccc3)c(C#N)c2nc1N [Example 15-6, N-((5-amino-3-cyano-6-methyl-1H-pyrrolo[3,2-b]pyridin-2-yl)methyl)benzamide] | 2.64 |  | > 300 |  |  | 76.7
Cc1cc(N)nc2cc(-c3ccccn3)cnc12 [Example 1-2, 4-methyl-7-(pyridin-2-yl)-1,5-naphthyridin-2-amine] | 82 |  |  |  |  | 
